Laboratory results: patent publication US11931364B2, “Modulation of the nitric oxide synthase pathway for oral health” (Meharry Medical College, priority 2016, dated 2024)

Tested on: nitric oxide release in rat tissue
Test: Nitric oxide release in rat tissue exposed to hyperglycemia in vitro, with sepiapterin supplementation
Settings: hyperglycemia 55 mM, 48 hr incubation, sepiapterin 100 μM, n=4 per group, FIG. 5
Procedure: FIG. 5. Effect of hyperglycemia (55 mM, 48 hr incubation) and supplementation of sepiapterin (SEP, 100 μM), on nitric oxide release in rat tissue. The bars represent mean f SEM. *p<0.05 non-glycemic (N.G, Control) vs. hyperglycemic (H.G); #p<0.05 N.G vs. SEP, t-test (n=4 in each group). […] Protein expression for DHFR was reduced in diabetic female rats (FIGS. 3A-3B). […] All the above findings correlated well with the impaired saliva secretion and water intake (FIGS. 1A-1B) and e/n NOS activity (FIGS. 3A-3B) as measured by dimerization in SM gland tissue. Therefore, dietary supplementation of sepiapterin improves e/n NOSα dimerization, nNOS activity, NO synthesis and saliva secretion.

Structure (SMILES): C[C@H](O)C(=O)C1=Nc2c(nc(N)[nH]c2=O)NC1 [sepiapterin]
- NO release in the tissue exposed to hyperglycemia: improved NO release
